Reference: patent US5164196A (priority 1990, dated 1992)

Target: crotoxin complex (1:1 complex of crotoxin A and crotoxin B) from Crotalus durissus terrificus venom (Crotalus durissus terrificus, UniProt P0CAS2)
Assay type: biochemical

crotoxin complex (1:1 complex of crotoxin A and crotoxin B) from Crotalus durissus terrificus venom, sequence (P0CAS2 whole entry, looked up, one chain of several): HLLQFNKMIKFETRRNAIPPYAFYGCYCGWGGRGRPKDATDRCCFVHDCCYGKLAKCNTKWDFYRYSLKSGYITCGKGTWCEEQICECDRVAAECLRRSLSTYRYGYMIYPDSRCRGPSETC

`O=C(CBr)c1ccc(Br)cc1` [p-bromophenacylbromide] was tested, and the “reaction with p-bromophenacyl bromide” value was “does not react”.
